Laboratory results taken from EP1914236A1 (Ortho-McNeil Pharmaceutical, Inc., priority 2002, dated 2003).
pKi: −log10 of the molar value. Where two headings read alike, the source gives them in different places.

Columns and labels:
[1] = biological target: T1, CHO-hB2 cell membranes (Homo sapiens, UniProt P30411); test: [35S]GTPγS Binding Assay in CHO-hB2 Cell Membranes; assay type: biochemical
T1 construct: purchased Receptor Biology, Inc. (Baltimore, MD); host or cells: CHO-hB2 cells (membranes)
T1 sequence (P30411 1-391): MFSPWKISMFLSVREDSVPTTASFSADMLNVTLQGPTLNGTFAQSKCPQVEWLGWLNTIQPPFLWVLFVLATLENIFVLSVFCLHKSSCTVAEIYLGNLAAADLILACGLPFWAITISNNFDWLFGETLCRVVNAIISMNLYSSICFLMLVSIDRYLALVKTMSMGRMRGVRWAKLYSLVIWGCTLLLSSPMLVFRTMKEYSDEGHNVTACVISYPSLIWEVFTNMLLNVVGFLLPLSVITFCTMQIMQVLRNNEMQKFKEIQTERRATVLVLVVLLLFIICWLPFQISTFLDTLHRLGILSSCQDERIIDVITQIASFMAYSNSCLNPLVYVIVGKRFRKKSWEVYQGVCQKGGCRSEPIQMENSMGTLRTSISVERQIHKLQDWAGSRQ
Protocol: CHO-hB2 cell membranes were purchased from Receptor Biology, Inc. (Baltimore,MD). 10 mg/mL of membrane protein was suspended in 10 mM TRIS-HC pH 7.2, 2 mM EDTA, 10% sucrose.
Membranes were added into 15 mL ice cold binding assay buffer. The assay buffer contained 50 mM HEPES, pH 7.6, 5 mM MgCl2, 100 mM NaCl, 1 mM DTT and 1 mM EDTA. The membrane suspension was homogenized twice with a Polytron and centrifuged at 3000 rpm for 10 min. The supernatant was then centrifuged at 18,000 rpm for 20 min. The pellet was saved in a tube and resuspended.
The pellet membranes (40 µg/mL) were preincubated with SPA (scintillation proximity assay) beads (20 mg/mL) at 25C° for 45 min in the assay buffer. The SPA beads (5 mg/mL) coupled with membranes (10 µg/mL) were then incubated with 0.5 nM [^35S]GTPγS in the same HEPES buffer containing 50 µM GDP in total volume of 200 µL. Bradykinin was used to stimulate [^35S]GTPγS binding. Varying concentrations of drugs were incubated with bradykinin to inhibit bradykinin-stimulated [^35S]GTPγS binding. The basal binding was tested in the absence of bradykinin and no specific binding was tested in the present 10 µM unlabeled GTPγS. The radioactivity was quantified on a Packard Top Count, and calculated. % of Basal = (stimulated binding-non specific binding)/(basal binding-non specific binding) × 100. [formula]

[2] = biological target: T2, human B2 bradykinin receptors (Homo sapiens, UniProt P30411); test: Bradykinin B2 (BK2) Receptor Binding Assay
T2 construct: purchased Receptor Biology, Inc. (Baltimore, MD); host or cells: CHO-K1 cells transfected with the human B2 receptor (membranes)
T2 sequence (P30411 1-391): T1 sequence (P30411 1-391)
In short: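 Membranes came from CHO-K1 cells expressing human B2 receptors; bound radioligand was collected by filtration and washed with cold 10 mM HEPES, pH 7.5. Single concentrations gave % inhibition of specific binding, and concentration ranges gave Ki values.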

[3] = Graded Abdominal Irritant Test (GrAIT); assay type: in vivo; details: for % Inhibition: 30 minutes before kaolin (100 mg/kg intraperitoneally), responses counted for 15 minutes, dose not given; for ED50: log dose regression analysis
Protocol: The Graded Abdominal Irritant Test (GrAIT) is a modification of the methods described by Koster et al. (Koster R., Anderson M and DeBeer E. J. Fed. Proc. 1959, 18, 412). Prior to the test (30 minutes for oral or subcutaneous administration), each animal was administered a known analgesic, a test compound, or vehicle (0.05N HCl) by one of two routes (oral or subcutaneous).
Kaolin (100 mg/kg) was injected intraperitoneally (using a standard 23G needle) at a volume of 10mL/kg of body weight. Following the administration of the chemical agent, the animals were placed in glass bell jars (approximately 15cm in diameter with wood chips on the bottom). […] A contraction of the abdominal musculature and an elongation of the body, which extends through to the hindlimbs, characterize this response. The responses were counted during the 15-minute time period after the injection of the kaolin. A mechanical counter or a personal computer was used to collect the number of counts per animal, and animals were observed no more than 5 at a time.
The mean number of counts (±SEM) for a group of animals receiving a known analgesic or test compound was compared to the mean for the group of animals which received only vehicle pretreatment (Control group). For each dose, % inhibition of the response was calculated. For each test compound, the EDso value was calculated using a log dose regression analysis program (PharmTools software).

[4] = number in parentheses, bradykinin-stimulated [35S]GTPγS binding, test concentration not given
[5] = word part of the cell, effect on bradykinin-stimulated [35S]GTPγS binding
[6] = membranes of CHO-K1 cells transfected with human B2 bradykinin receptors, ~0.25 nM [3H]NPC17731, 60 min at 25°C

Row | Structure (SMILES) | Functional Activity (% Basal) [1, 4] | Functional Activity [1, 5] | pKi [2, 6] | % Inhibition ([3]; po) | ED50 ([3]; po) | % Inhibition ([3]; sc) | Functional Activity [1] | Functional Activity (% Basal) [1] | pKi [2]
1 | Cc1ccc2cccc(OCc3c(Cl)ccc(N(C)C(=O)Cc4ccc(C(=O)c5ccc(Cl)nc5)n4C)c3Cl)c2n1 [Compound 67, 2-[5-(6-Chloro-pyridine-3-carbonyl)-1-methyl-1H-pyrrol-2-yl]-N-[2,4-dichloro-3-(2-methyl-quinolin-8-yloxymethyl)-phenyl]-N-methyl-acetamide] | 55 % Basal | Antagonist | 6.71 | 78% | 68.8 µmol/kg | 100% |  |  | 
2 | CC(=O)Nc1ccc(C(=O)c2ccc(CC(=O)N(C)c3ccc(Cl)c(COc4cccc5ccc(C)nc45)c3Cl)n2C)cc1 [Compound 74, 2-[5-(4-Acetylamino-benzoyl)-1-methyl-1 H-pyrrol-2-yl]-N-[2,4-dichloro-3-(2-methyl-quinolin-8-yloxymethyl)-phenyl]-N-methyl-acetamide] | 33 % Basal | Antagonist | 7.17 | -6% |  | 88% |  |  | 
3 | Cc1ccc2cccc(OCc3c(Cl)ccc(N(C)C(=O)Cc4ccc(C(=O)c5ccc(S(C)(=O)=O)cc5)n4C)c3Cl)c2n1 [Compound 75, N-[2,4-Dichloro-3-(2-methyl-quinolin-8-yloxymethyl)-phenyl]-2-[5-(4-methanesulfonyl-benzoyl)-1-methyl-1 H-pyrrol-2-yl]-N-methyl-acetamide] | 73 % Basal | Antagonist | 7.33 | 50% |  | 93.3% |  |  | 
4 | Cc1ccc2cccc(OCc3c(Cl)ccc(N(C)C(=O)Cc4ccc(C(=O)c5ccc(C#N)cc5)n4C)c3Cl)c2n1 [Compound 76] | 79 % Basal | Antagonist | 7.39 | 22% |  | 100% |  |  | 
5 | Cc1ccc2cccc(OCc3c(C)ccc(N(C)C(=O)Cc4ccc(C(=O)c5ccc(Cl)nc5)n4C)c3C)c2n1 [Compound 77] | 62 % Basal | Antagonist | 6.51 | 70 po % | 80.9 µmol/kg |  |  |  | 
6 | Cc1ccc2cccc(OCc3c(C)ccc(N(C)C(=O)Cc4ccc(C(=O)c5ccc(C#N)nc5)n4C)c3C)c2n1 [Compound 78] | 83 % Basal | Antagonist | 6.54 | 82 po % | 114 µmol/kg |  |  |  | 
7 | Cc1ccc2cccc(OCc3c(C)ccc(N(C)C(=O)Cc4ccc(C(=O)c5ccc(C#N)cc5)n4C)c3C)c2n1 [Compound 79, 2-[5-(4-Cyano-benzoyl)-1-methyl-1H-pyrrol-2-yl]-N-[2,4-dimethyl-3-(2-methyl-quinolin-8-yloxymethyl)-phenyl]-N-methyl-acetamide] | 100 % Basal | Antagonist | 7.16 | 68 po % | 61.3 µmol/kg |  |  |  | 
8 | Cc1ccc2cccc(OCc3c(C)ccc(N(C)C(=O)CCc4ccc(C(=O)c5ccc(Cl)nc5)n4C)c3C)c2n1 [Compound 88] | 41 % Basal | Antagonist | 6.90 | -24% |  | 96% |  |  | 
9 | Cc1ccc2cccc(OCc3c(Cl)ccc(N(C)C(=O)CCc4ccc(C(=O)c5ccc(Cl)nc5)n4C)c3Cl)c2n1 [Compound 89] | 51 % Basal | Antagonist | 7.24 | 98po % | 22.5 µmol/kg |  |  |  | 
10 | Cc1ccc2cccc(OCc3c(C)ccc(N(C)C(=O)CCc4ccc(C(=O)c5ccc(C#N)cc5)n4C)c3C)c2n1 [Compound 90] | 50 % Basal | Antagonist | 7.34 | 45% |  | 100% |  |  | 
11 | Cc1ccc2cccc(OCc3c(Cl)ccc(N(C)C(=O)CCc4ccc(C(=O)c5ccc(C#N)cc5)n4C)c3Cl)c2n1 [Compound 91] |  |  |  | 23% |  | 97.4% | Antagonist (58) | Antagonist (58) % Basal | 7.82
